Test results from patent publication US8288382B2, “Diaminothiazoles useful as Axl inhibitors” (Rigel Pharmaceuticals, Inc., priority 2006, dated 2012).

Molecular target: T1, Axl (Homo sapiens, UniProt P30530)
T1 construct: endogenous in cells; host or cells: HeLa cells
T1 sequence (P30530 26-894): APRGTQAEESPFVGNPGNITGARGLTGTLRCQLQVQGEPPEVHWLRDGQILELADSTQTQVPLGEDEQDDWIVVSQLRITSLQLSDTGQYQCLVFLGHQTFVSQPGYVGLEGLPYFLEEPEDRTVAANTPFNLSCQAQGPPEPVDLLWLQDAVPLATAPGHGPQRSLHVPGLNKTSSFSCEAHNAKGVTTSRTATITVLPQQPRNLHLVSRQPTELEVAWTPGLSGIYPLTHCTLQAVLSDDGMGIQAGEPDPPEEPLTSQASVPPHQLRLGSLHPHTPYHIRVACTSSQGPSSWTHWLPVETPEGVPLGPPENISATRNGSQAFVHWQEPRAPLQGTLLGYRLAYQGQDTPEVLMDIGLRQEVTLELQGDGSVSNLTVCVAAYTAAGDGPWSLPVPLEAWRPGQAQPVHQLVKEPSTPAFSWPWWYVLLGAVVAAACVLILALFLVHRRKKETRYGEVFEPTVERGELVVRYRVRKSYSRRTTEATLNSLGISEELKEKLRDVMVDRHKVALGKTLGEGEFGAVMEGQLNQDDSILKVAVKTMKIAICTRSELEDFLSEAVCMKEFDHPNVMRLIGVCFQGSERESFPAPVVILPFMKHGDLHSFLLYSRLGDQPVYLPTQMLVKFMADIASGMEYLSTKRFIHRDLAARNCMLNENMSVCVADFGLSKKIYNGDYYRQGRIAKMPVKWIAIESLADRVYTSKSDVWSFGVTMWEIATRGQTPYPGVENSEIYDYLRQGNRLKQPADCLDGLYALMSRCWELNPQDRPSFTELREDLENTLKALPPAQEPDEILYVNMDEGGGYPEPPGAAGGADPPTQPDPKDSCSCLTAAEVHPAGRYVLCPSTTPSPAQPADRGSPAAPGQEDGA
Assay: Phospho-Akt In-Cell Western Assay (inhibition of Axl activity)
Assay type: cell-based
Conditions: Hela cells, stimulated by Axl-antibody cross-linking, phospho-Akt chemiluminescence normalized to relative cell number
Protocol: The compounds of the invention were tested in the following assay for their ability to inhibit Axl activity.
Phospho-Akt In-Cell Western Assay
• Cell culture plate: 96 well assay plate (Corning 3610), white, clear bottom, tissue-culture treated. • Cells: Hela cells. • Starvation medium: For Axl stimulation: 0.5% FCS (fetal calf serum) in DMEM, plus Axl/Fc (extracellular domain of AXL fused to imunoglobulin Fc region) (R&D, 154-AL) 500 ng/mL. • For EGF (epidermal growth factor) stimulation: 0.5% FCS in DMEM (Dulbecco's modified Eagles medium). • Poly-L-Lysine 0.01% solution (the working solution): 10 μg/ml, dilute In PBS (phosphate buffered saline). • Axl antibody cross-linking: • 1st: Mouse anti-Axl (R&D, MAB154). • 2nd: Biotin-SP-conjugated AffiniPure goat anti-mouse IgG (H+L) (Jackson ImmunoResearch #115-065-003). • Fixing buffer: 4% formaldehyde in PBS. • Wash buffer: 0.1% TritonX-100 in PBS. • Quenching buffer: 3% H2O2, 0.1% Azide in wash buffer, Azide and hydrogen peroxide (H2O2) are added fresh. • Blocking buffer: 5% BSA in TBST (tris buffered saline plus 0.1% Tween 20). • Primary antibody: Rabbit anti-human Phospho-Akt antibody (Cell Signaling 9271): 1×250 diluted in blocking buffer. • Secondary antibody: HRP (horse radish peroxidase)-conjugated Goat anti-Rabbit secondary, stock solution: Jackson ImmunoResearch (Goat anti-Rabbit HRP, #111-035-144) 1:1 diluted in glycerol, store at −20° C. The working solution: 1×2000 dilution of stock in blocking buffer. • Chemiluminescent working solution (Pierce, 37030): SuperSignal ELISA (enzyme linked immunosorbant assay) Pico Chemiluminescent substrate. • Crystal Violet solution: Stock: 2.5% Crystal violet in methanol, filtered and kept at ambient temperature. The working solution: dilute the stock 1:20 with PBS immediately before use. • 10% SDS: working solution: 5% SDS (sodium dodecylsulfate), diluted in PBS Methods: Day 1:
A 96 well TC (tissue culture treated) plate was coated with 10 μg/mL poly-L-Lysine at 37° C. for 30 min, washed twice with PBS, and air-dried for 5 minutes before cells were added. Hela cells were seeded at 10,000 cells/well and the cells were starved in 100 μL starvation medium containing Axl/Fc for 24 hrs.
The cells were pre-treated with test compounds by adding 100 μL of 2× test compound to the starvation medium on the cells. The cells were incubated at 37° C. for 1 hr before stimulation.
The cells were stimulated by Axl-antibody cross-linking as follows: A 5× 1st/2nd Axl antibody mixture was made (37.5 μg/mL 1st/100 μg/mL 2nd) in starvation medium and nutated at 4° C. with thorough mixing for 1-2 hours for clustering. The resulting mix was warmed to 37° C. 50 μL of 5× Axl 1st/2nd of antibody cluster was added to the cells and the cells were incubated at 37° C. for 5 min.
After 5 minutes stimulation, the plate was flicked to remove medium and the plate was tapped onto paper towels. Formaldehyde (4.0% in PBS, 100 μL) was added to fix the cells and the cells were incubated at ambient temperature for 20 min without shaking.
The cells were washed with a plate washer buffer to remove the formaldehyde solution. The plate was flicked to removed excess wash buffer and tapped onto paper towels. Quenching buffer (100 μL) was added to each well and the cells were incubated at ambient temperature for 20 minutes without shaking.
The cells were washed with a plate washer buffer to remove the quenching buffer. Blocking buffer (100 μL) was added and the cells were incubated at ambient temperature for at least an hour with gentle shaking.
The cells were washed with a plate washer buffer and diluted primary antibody (50 μL) was added to each well (blocking buffer was added to the negative control wells instead). The plates were incubated overnight at 4° C. with gentle shaking.
The wash buffer was removed, diluted secondary antibody (100 μL) was added, and the cells were incubated at ambient temperature for 1 hour with gentle shaking. […]

Row | Compound | IC50
1 | COc1cc2ncnc(-c3sc(Nc4ccc(OCCN5CCCC5)cc4)nc3N)c2cc1OC [Compound 1, 5-(6,7-dimethoxyquinazolin-4-yl)-N^2-(4-(2-(pyrrolidin-1-yl)ethoxy)phenyl)thiazole-2,4-diamine] | 1 to 10 µM
2 | COc1cc(Nc2nc(N)c(-c3cnc4ccccc4n3)s2)cc(OC)c1OC [Compound 3, 5-(quinoxalin-2-yl)-N^2-(3,4,5-trimethoxyphenyl)thiazole-2,4-diamine] | 1 to 10 µM
3 | COc1cc(Nc2nc(N)c(-c3ncnc4ccccc34)s2)cc(OC)c1OC [Compound 6, 5-(quinazolin-4-yl)-N^2-(3,4,5-trimethoxyphenyl)thiazole-2,4-diamine] | > 20 µM
4 | Nc1nc(Nc2ccc(N3CCOCC3)cc2)sc1-c1nccc2ccccc12 [Compound 7, 5-(isoquinolin-1-yl)-N^2-(4-morpholinophenyl)thiazole-2,4-diamine] | 10 to 20 µM
5 | COc1cc2ncnc(-c3sc(Nc4ccc(N5CCOCC5)cc4)nc3N)c2cc1OC [Compound 10, 5-(6,7-dimethoxyquinazolin-4-yl)-N^2-(4-morpholinophenyl)thiazole-2,4-diamine] | 1 to 10 µM
6 | COc1cc2ncnc(-c3sc(Nc4ccc(N5CCN(C)CC5)cc4)nc3N)c2cc1OC [Compound 11, 5-(6,7-dimethoxyquinazolin-4-yl)-N^2-(4-(4-methylpiperazin-1-yl)phenyl)thiazole-2,4-diamine] | 1 to 10 µM
7 | Nc1nc(Nc2ccc(N3CCN(C4CC5CCC4C5)CC3)cc2)sc1-c1ncnc2ccsc12 (centres unmarked) [Compound 12, N^2-(4-(4-(bicyclo[2.2.1]heptan-2-yl)piperazin-1-yl)phenyl)-5-(thieno[3,2-d]pyrimidin-4-yl)thiazole-2,4-diamine] | 1 to 10 µM
8 | COc1cc2ncnc(-c3sc(Nc4ccc(N5CCN(C6CC7CCC6C7)CC5)cc4)nc3N)c2cc1OC (centres unmarked) [Compound 13, N^2-(4-(4-(bicyclo[2.2.1]heptan-2-yl)piperazin-1-yl)phenyl)-5-(6,7-dimethoxyquinazolin-4-yl)thiazole-2,4-diamine] | > 20 µM
9 | COc1cc2ncnc(-c3sc(Nc4ccc(OCCN5CCCC5)c(Cl)c4)nc3N)c2cc1OC [Compound 14, N^2-(3-chloro-4-(2-(pyrrolidin-1-yl)ethoxy)phenyl)-5-(6,7-dimethoxyquinazolin-4-yl)thiazole-2,4-diamine] | 1 to 10 µM

More lines, now with the values ahead:

Row | IC50 | Compound
10 | > 20 µM | COc1ccc(Nc2nc(N)c(-c3ccccn3)s2)cc1 [Compound 2, N^2-(4-methoxyphenyl)-5-(pyridin-2-yl)thiazole-2,4-diamine]
11 | 1 to 10 µM | Nc1nc(Nc2ccc(OCCN3CCCC3)cc2)sc1-c1cnc2ccccc2n1 [Compound 4, N^2-(4-(2-(pyrrolidin-1-yl)ethoxy)phenyl)-5-(quinoxalin-2-yl)thiazole-2,4-diamine]
12 | 1 to 10 µM | Nc1nc(Nc2ccc(OCCN3CCCC3)cc2)sc1-c1ncnc2ccccc12 [Compound 5, N^2-(4-(2-(pyrrolidin-1-yl)ethoxy)phenyl)-5-(quinazolin-4-yl)thiazole-2,4-diamine]
13 | > 20 µM | Nc1nc(Nc2ccc(OCCN3CCCC3)cc2)sc1-c1nccc2ccccc12 [Compound 8, 5-(isoquinolin-1-yl)-N^2-(4-(2-(pyrrolidin-1-yl)ethoxy)phenyl)thiazole-2,4-diamine]
14 | 1 to 10 µM | Nc1nc(Nc2ccc(OCCN3CCCC3)cc2)sc1-c1nc2ccccc2s1 [Compound 9, 5-(benzo[d]thiazol-2-yl)-N^2-(4-(2-(pyrrolidin-1-yl)ethoxy)phenyl)thiazole-2,4-diamine]
